Data reported in the supplement of paper PMC12076712.

Legend:
Assay in all cases: pIC50, kinobeads binding competition
Hck = Hck (UniProt P08631); settings: cell material: Lysate mix
Procedure, shortened: (§1)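 Nine compound concentrations were tested, starting at 30 μM in 1:4 steps on live Jurkat cells (60 min, 37 °C, then lysis) or in 1:5 steps on Jurkat lysate or a 1:1:1:1 HEK293/K-562/HepG2/placenta lysate mix (60 min, 4 °C). Kinobeads-bound proteins were digested and quantified with TMT10 LC-MS/MS. pIC50 values are from logistic dose-response fits in the R drc package of fold changes relative to vehicle, from biological duplicates.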

UniProt P21127 = target: UniProt P21127
Procedure, shortened: as §1

UniProt P27361 = target: UniProt P27361
Procedure, shortened: as §1

UniProt Q13163 = target: T1, UniProt Q13163
T1 sequence (whole entry): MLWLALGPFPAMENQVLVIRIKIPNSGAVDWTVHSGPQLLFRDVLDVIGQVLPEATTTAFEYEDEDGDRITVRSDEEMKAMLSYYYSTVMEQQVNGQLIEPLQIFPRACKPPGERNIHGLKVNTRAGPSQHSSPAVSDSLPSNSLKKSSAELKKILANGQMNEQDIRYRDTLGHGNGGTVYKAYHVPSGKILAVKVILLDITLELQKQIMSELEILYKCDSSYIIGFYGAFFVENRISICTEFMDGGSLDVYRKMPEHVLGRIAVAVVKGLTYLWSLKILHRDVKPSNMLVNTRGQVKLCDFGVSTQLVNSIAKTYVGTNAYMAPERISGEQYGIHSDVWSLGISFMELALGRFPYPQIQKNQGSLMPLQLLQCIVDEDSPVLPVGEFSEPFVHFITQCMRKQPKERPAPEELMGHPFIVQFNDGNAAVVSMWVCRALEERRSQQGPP
Procedure, shortened: as §1

NEK9 = target: T2, NEK9 (UniProt Q8TD19)
T2 sequence (whole entry): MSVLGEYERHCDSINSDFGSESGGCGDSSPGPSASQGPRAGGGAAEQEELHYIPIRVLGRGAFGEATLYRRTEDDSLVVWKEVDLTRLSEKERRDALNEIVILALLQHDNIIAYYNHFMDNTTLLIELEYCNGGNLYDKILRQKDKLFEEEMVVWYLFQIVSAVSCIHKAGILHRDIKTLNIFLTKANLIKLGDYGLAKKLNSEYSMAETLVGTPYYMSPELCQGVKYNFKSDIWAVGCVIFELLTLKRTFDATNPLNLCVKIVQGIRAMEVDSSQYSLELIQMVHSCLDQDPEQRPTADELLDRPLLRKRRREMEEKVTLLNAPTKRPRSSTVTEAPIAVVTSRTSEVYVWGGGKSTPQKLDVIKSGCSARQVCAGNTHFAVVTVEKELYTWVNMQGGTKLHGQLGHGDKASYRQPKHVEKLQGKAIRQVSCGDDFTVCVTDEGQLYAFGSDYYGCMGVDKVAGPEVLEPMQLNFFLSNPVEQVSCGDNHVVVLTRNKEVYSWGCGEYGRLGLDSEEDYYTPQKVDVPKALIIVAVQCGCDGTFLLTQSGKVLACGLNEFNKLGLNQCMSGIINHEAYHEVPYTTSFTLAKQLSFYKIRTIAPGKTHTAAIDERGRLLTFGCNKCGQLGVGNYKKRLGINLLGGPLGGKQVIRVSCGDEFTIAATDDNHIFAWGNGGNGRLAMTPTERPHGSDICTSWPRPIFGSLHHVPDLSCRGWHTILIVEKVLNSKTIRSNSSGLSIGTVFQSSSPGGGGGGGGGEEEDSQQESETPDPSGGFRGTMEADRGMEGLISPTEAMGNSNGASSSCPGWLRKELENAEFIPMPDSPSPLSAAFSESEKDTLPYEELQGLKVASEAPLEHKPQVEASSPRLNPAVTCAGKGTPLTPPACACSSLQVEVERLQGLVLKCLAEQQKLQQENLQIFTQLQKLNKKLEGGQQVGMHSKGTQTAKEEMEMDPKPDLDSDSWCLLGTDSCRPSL
Procedure, shortened: as §1

MERTK = target: T3, MERTK (UniProt Q12866)
T3 sequence (whole entry): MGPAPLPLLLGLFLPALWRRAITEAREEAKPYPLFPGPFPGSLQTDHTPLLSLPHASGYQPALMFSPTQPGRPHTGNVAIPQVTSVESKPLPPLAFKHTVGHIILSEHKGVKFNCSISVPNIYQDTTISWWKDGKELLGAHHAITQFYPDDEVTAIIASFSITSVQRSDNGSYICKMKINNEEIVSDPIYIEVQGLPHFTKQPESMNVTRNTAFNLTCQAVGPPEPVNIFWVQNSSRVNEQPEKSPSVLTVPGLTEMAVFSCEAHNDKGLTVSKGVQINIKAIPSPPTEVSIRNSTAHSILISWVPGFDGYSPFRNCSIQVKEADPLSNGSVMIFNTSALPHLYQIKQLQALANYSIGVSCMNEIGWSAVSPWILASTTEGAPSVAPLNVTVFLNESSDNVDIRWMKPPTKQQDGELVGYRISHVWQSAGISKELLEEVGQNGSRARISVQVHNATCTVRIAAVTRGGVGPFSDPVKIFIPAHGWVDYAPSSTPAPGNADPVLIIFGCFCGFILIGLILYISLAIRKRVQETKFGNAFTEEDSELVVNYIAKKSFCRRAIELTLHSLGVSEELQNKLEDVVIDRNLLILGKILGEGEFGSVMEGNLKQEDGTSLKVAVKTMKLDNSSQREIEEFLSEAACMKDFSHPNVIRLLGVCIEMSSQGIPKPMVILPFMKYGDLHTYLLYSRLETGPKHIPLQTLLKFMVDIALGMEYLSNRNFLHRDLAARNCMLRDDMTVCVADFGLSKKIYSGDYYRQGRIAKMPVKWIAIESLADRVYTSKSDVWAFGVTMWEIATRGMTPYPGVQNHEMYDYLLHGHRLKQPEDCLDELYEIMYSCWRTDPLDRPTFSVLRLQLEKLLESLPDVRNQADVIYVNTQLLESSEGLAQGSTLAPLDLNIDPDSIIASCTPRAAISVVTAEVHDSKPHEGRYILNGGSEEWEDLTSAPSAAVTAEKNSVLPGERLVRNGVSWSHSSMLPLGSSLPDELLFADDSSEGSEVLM
Procedure, shortened: as §1

FGFR3 = FGFR3 (UniProt P22607); settings: cell material: Lysate mix
Procedure, shortened: as §1

UniProt P35916 = settings: cell material: Lysate mix
Procedure, shortened: as §1

Sequence of UniProt P27361 (P27361 whole entry): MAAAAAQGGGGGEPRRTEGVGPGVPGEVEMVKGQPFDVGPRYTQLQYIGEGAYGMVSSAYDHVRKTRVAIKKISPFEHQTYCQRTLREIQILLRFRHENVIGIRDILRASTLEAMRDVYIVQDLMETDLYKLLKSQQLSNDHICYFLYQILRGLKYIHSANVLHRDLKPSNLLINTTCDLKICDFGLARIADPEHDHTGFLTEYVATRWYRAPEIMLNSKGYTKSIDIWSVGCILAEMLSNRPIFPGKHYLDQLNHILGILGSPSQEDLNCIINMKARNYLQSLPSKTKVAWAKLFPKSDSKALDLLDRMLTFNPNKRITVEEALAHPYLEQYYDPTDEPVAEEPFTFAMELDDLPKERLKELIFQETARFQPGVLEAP
Sequence of UniProt P21127 (P21127 whole entry): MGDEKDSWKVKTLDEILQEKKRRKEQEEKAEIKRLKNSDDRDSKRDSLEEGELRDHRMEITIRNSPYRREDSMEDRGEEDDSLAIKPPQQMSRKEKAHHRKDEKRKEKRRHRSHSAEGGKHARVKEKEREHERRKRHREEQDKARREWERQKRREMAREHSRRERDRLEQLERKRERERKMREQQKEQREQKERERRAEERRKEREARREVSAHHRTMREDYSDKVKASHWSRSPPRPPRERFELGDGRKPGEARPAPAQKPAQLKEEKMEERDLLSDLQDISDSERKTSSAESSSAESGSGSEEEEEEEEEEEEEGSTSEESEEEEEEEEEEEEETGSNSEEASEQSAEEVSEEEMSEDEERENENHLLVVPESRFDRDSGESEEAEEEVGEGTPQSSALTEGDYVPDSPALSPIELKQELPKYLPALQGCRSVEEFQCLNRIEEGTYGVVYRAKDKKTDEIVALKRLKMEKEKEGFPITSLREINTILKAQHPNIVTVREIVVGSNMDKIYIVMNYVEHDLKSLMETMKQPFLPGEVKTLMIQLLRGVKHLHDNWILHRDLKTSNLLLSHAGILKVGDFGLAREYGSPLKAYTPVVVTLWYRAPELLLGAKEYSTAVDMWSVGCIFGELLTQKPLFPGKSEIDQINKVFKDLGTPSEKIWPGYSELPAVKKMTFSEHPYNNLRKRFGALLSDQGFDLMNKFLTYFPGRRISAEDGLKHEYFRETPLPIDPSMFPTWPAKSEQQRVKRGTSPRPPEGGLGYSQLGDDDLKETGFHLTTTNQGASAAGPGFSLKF
Sequence of FGFR3 (P22607 whole entry, looked up): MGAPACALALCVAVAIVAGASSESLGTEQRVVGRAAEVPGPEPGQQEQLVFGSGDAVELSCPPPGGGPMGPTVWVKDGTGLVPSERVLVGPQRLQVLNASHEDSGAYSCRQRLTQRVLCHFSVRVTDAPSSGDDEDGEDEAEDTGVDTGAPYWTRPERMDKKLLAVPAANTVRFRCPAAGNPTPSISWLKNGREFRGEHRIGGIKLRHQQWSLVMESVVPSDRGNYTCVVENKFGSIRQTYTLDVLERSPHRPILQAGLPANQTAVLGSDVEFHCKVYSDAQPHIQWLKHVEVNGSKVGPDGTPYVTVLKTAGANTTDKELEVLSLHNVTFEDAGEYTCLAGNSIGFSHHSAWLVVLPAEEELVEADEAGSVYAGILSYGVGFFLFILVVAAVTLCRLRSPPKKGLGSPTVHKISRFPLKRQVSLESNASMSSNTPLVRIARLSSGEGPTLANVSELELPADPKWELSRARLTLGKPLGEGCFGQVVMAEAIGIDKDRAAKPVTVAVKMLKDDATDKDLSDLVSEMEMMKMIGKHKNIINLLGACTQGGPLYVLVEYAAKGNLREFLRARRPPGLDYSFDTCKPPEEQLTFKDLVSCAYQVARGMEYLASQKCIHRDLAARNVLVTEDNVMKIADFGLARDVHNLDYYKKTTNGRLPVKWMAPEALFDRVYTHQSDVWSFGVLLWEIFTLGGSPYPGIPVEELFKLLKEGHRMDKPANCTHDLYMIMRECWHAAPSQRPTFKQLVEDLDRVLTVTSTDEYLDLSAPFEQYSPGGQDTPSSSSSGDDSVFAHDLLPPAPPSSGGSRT
Sequence of UniProt P35916 (P35916 whole entry): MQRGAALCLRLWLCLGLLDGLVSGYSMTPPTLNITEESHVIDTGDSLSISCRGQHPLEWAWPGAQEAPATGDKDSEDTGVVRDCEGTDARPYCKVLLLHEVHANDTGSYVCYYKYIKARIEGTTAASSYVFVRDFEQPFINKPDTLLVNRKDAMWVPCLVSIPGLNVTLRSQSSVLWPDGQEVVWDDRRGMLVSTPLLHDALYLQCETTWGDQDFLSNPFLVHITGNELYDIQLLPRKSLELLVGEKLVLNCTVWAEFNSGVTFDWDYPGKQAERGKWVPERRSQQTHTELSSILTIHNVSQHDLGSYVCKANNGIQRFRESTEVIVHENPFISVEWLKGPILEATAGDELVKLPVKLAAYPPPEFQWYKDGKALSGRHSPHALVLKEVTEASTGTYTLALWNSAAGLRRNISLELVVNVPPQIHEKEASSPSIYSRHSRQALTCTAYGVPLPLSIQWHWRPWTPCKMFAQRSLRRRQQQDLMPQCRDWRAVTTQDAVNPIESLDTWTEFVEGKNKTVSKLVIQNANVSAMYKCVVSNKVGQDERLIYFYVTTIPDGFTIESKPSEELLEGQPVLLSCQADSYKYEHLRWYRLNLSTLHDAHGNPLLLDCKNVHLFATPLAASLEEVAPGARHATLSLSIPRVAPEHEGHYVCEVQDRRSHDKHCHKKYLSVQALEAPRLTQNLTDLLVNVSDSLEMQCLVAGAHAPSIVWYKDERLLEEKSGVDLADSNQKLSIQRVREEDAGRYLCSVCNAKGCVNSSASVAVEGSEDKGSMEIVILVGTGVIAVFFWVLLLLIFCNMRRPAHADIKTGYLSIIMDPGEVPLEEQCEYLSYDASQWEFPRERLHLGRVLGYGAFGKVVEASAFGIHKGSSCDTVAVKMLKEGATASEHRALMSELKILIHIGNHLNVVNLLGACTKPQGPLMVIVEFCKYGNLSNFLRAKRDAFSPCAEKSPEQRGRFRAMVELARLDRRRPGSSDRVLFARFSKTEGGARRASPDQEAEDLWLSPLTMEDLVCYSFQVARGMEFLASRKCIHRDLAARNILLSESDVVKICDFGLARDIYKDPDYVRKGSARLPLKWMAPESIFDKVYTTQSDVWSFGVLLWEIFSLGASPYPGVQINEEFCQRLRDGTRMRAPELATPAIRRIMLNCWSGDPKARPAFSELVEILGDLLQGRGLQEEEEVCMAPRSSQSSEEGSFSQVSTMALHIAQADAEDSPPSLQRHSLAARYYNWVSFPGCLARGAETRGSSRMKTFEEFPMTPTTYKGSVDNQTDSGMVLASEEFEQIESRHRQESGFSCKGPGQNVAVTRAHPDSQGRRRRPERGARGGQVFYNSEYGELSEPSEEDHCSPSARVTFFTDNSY
Sequence of Hck (P08631 whole entry, looked up): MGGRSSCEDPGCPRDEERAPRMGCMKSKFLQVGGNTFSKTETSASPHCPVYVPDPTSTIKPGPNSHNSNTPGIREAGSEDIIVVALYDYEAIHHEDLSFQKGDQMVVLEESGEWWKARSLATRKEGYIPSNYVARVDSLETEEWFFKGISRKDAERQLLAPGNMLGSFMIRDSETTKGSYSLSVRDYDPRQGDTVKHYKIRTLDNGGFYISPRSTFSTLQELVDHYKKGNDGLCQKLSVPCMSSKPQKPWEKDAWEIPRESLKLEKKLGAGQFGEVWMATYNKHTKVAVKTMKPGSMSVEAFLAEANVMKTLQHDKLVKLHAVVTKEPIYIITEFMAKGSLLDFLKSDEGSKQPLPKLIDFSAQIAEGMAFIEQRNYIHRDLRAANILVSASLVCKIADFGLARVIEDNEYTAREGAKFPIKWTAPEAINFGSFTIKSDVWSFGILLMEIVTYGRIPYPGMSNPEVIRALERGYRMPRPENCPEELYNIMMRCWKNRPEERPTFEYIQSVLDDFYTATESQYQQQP

| SMILES | pIC50 (Hck) | pIC50 (UniProt P21127; cell material: Lysate mix) | pIC50 (UniProt P27361; cell material: Lysate mix) | pIC50 (UniProt Q13163; cell material: Lysate mix) | pIC50 (MERTK; cell material: Lysate mix) | pIC50 (FGFR3) | pIC50 (UniProt P35916) | pIC50 (NEK9; cell material: Lysate mix) | pIC50 (UniProt P21127; cell material: Jurkat cells) | pIC50 (UniProt P21127; cell material: Jurkat lysate) | pIC50 (UniProt P27361; cell material: Jurkat cells) | pIC50 (UniProt P27361; cell material: Jurkat lysate) | pIC50 (UniProt Q13163; cell material: Jurkat cells) | pIC50 (UniProt Q13163; cell material: Jurkat lysate) | pIC50 (NEK9; cell material: Jurkat cells) | pIC50 (NEK9; cell material: Jurkat lysate) | pIC50 (MERTK; cell material: Jurkat cells) | pIC50 (MERTK; cell material: Jurkat lysate) |
| --- | --- | --- | --- | --- | --- | --- | --- | --- | --- | --- | --- | --- | --- | --- | --- | --- | --- | --- |
| C#CCNC(=O)c1cc(Nc2cc(C)[nH]n2)nc(N2CCN(Cc3ccc(S(=O)(=O)F)cc3)CC2)n1 | 5.4 | < 4.52 | < 4.52 | 4.64 | < 4.52 | < 4.52 | < 4.52 | 6.52 | – | – | – | – | – | – | – | – | – | – |
| C#CCNC(=O)c1cc(Nc2cc(C3CC3)[nH]n2)nc(N2CCN(Cc3ccc(S(=O)(=O)F)cc3)CC2)n1 | 5.86 | < 4.52 | – | 5.42 | 4.84 | < 4.52 | < 4.52 | 7.48 | < 4.52 | < 4.52 | 5.73 | < 4.52 | 5.71 | 4.88 | 6.87 | 6.66 | 6.29 | < 4.52 |
| CCNC(=O)c1cc(Nc2cc(C3CC3)[nH]n2)nc(N2CCN(Cc3ccc(S(=O)(=O)F)cc3)CC2)n1 | 5.8 | < 4.52 | 4.94 | 5.28 | 4.94 | 5.04 | < 4.52 | 7.29 | – | – | – | – | – | – | – | – | – | – |

Further lines, with some results ahead:

| pIC50 (Hck) | pIC50 (UniProt P21127; cell material: Lysate mix) | pIC50 (UniProt P27361; cell material: Lysate mix) | pIC50 (UniProt Q13163; cell material: Lysate mix) | pIC50 (MERTK; cell material: Lysate mix) | pIC50 (FGFR3) | pIC50 (UniProt P35916) | SMILES | pIC50 (NEK9; cell material: Lysate mix) | pIC50 (UniProt P21127; cell material: Jurkat cells) | pIC50 (UniProt P21127; cell material: Jurkat lysate) | pIC50 (UniProt P27361; cell material: Jurkat cells) | pIC50 (UniProt P27361; cell material: Jurkat lysate) | pIC50 (UniProt Q13163; cell material: Jurkat cells) | pIC50 (UniProt Q13163; cell material: Jurkat lysate) | pIC50 (NEK9; cell material: Jurkat cells) | pIC50 (NEK9; cell material: Jurkat lysate) | pIC50 (MERTK; cell material: Jurkat cells) | pIC50 (MERTK; cell material: Jurkat lysate) |
| --- | --- | --- | --- | --- | --- | --- | --- | --- | --- | --- | --- | --- | --- | --- | --- | --- | --- | --- |
| < 4.52 | < 4.52 | < 4.52 | < 4.52 | < 4.52 | < 4.52 | < 4.52 | O=C(NCCNC(=O)c1cc(Nc2cc(C3CC3)[nH]n2)nc(N2CCN(Cc3ccc(S(=O)(=O)F)cc3)CC2)n1)OC1CC/C=C/CCC1 (stereo unspecified) | 5.56 | < 4.52 | < 4.52 | – | < 4.52 | 4.99 | < 4.52 | 6.9 | 5.24 | 6.04 | < 4.52 |
| 5.62 | < 4.52 | < 4.52 | 4.73 | < 4.52 | < 4.52 | < 4.52 | CCNC(=O)c1cc(Nc2cc(C)[nH]n2)nc(N2CCN(Cc3ccc(S(=O)(=O)F)cc3)CC2)n1 | 7.27 | – | – | – | – | – | – | – | – | – | – |
| < 4.52 | < 4.52 | < 4.52 | < 4.52 | < 4.52 | < 4.52 | < 4.52 | Cc1cc(Nc2cc(C(=O)NCCNC(=O)OC3CC/C=C/CCC3)nc(N3CCN(Cc4ccc(S(=O)(=O)F)cc4)CC3)n2)n[nH]1 (stereo unspecified) | 5.2 | – | – | – | – | – | – | – | – | – | – |
